Literature values as cited in patent US9993551B2, “Combination therapies of EGFR inhibitors” (NOVARTIS AG, priority 2014, dated 2018).

How the values were obtained:
[1] = tested on: EGFR activating and acquired resistance mutants (L858R, ex19del and T790M); settings: targeted covalent irreversible EGFR inhibitor
[2] = molecular target: WT EGFR (Homo sapiens, UniProt P00533)
[3] = tested on: EGFR mutant (L858R, ex19del and T790M) cancer models; settings: in vitro and in vivo

Sequence of WT EGFR (P00533 25-1210): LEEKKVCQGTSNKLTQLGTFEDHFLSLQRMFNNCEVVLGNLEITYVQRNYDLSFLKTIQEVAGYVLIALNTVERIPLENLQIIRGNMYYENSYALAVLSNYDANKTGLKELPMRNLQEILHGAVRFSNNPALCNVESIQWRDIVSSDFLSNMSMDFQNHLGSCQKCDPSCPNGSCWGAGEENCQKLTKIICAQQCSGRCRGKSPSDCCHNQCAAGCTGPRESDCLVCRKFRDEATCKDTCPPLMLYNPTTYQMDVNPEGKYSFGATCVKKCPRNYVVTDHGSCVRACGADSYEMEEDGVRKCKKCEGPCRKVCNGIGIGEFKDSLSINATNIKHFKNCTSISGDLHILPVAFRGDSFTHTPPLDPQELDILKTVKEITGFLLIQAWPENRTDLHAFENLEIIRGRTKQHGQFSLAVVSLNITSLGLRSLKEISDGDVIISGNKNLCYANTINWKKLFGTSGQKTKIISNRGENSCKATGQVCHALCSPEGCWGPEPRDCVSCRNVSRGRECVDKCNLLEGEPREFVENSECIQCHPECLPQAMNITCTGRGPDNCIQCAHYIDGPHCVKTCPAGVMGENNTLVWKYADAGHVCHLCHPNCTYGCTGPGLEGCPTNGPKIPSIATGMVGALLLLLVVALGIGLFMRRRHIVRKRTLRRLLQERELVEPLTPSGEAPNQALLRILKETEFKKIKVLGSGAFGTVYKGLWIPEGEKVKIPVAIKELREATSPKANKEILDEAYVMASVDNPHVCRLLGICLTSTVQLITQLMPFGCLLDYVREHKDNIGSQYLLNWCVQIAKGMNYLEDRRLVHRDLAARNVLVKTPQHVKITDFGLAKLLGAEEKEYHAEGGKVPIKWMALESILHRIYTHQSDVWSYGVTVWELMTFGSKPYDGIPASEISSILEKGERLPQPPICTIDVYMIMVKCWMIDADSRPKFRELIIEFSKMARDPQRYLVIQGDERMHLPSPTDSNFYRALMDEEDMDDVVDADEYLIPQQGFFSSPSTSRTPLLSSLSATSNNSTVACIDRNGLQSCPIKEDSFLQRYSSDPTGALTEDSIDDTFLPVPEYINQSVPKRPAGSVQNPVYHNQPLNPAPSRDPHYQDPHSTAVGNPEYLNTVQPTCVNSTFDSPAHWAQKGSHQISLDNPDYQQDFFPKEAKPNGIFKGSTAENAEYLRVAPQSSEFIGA

## Cc1cc(C(=O)Nc2nc3cccc(Cl)c3n2[C@@H]2CCCCN(C(=O)/C=C/CN(C)C)C2)ccn1 [EGF816, (R,E)-N-(7-chloro-1-(1-(4-(dimethylamino)but-2-enoyl)azepan-3-yl)-1H-benzo[d]imidazol-2-yl)-2-methylisonicotinamide]
[1]
  inhibition of mutant EGFR: selectively inhibits
[2]
  effect on WT EGFR: sparing WT EGFR
[3]
  efficacy in EGFR mutant cancer models: significant efficacy
